Earlier results in US9775802B2, “Method for preparing suspensions of low-solubility materials” (Bausch & Lomb Incorporated, priority 2009, dated 2017).
Structures can show the parent of a compound that is named as a salt. Where two headings read alike, the source gives them in different places. Each block holds one compound with its values, some of them ahead of it.

Details: for solubility in water, estimated: 'estimated to be'

- solubility in water (in words): soluble in water
Compound: C[C@@H]1C[C@H]2[C@@H]3CCC4=CC(=O)C=C[C@]4(C)[C@@]3(F)[C@@H](O)C[C@]2(C)[C@@]1(O)C(=O)COP(=O)(O)O [dexamethasone phosphate disodium salt]

- solubility in water (37° C.): about 39 mg/mL
Compound: CC[C@H]1OC(=O)[C@H](C)[C@@H](O[C@H]2C[C@@](C)(OC)[C@@H](O)[C@H](C)O2)[C@H](C)[C@@H](O[C@@H]2O[C@H](C)C[C@H](N(C)C)[C@H]2O)[C@](C)(O)C[C@@H](C)CN(C)[C@H](C)[C@@H](O)[C@]1(C)O [azithromycin dihydrate]

- solubility in water, estimated: about 0.17 mg/mL
Compound: COc1c(N2C[C@@H]3CCCN[C@@H]3C2)c(F)cc2c(=O)c(C(=O)O)cn(C3CC3)c12 [moxifloxacin]

- solubility in water (temperature not stated): about 0.5 mg/mL
Compound: CC[C@H]1OC(=O)[C@H](C)[C@@H](O[C@H]2C[C@@](C)(OC)[C@@H](O)[C@H](C)O2)[C@H](C)[C@@H](O[C@@H]2O[C@H](C)C[C@H](N(C)C)[C@H]2O)[C@](C)(O)C[C@@H](C)CN(C)[C@H](C)[C@@H](O)[C@]1(C)O [azithromycin]

- solubility in water, estimated: about 0.002 mg/mL
Compound: O=C(O)Cc1ccccc1Nc1c(Cl)cccc1Cl [diclofenac]

- solubility in water (temperature not stated): about 50 mg/mL
Compound: O=C(O)Cc1ccccc1Nc1c(Cl)cccc1Cl [diclofenac sodium salt]

- solubility in water (25° C.): about 0.1 mg/mL
Compound: C[C@@H]1C[C@H]2[C@@H]3CCC4=CC(=O)C=C[C@]4(C)[C@@]3(F)[C@@H](O)C[C@]2(C)[C@@]1(O)C(=O)CO [dexamethasone]
